# From US8709764B2, “Enzymatic demethylation of flavonoids” (Universiteit Gent, priority 2005, dated 2014)
# System: selected strain Eubacterium limosum
# Test: Fed batch fermentation of IX with selected Eubacterium limosum strain
# Type: in vitro ADME
# Conditions: fermentor effluent
# Protocol: A fed batch fermentation experiment was designed to use a selected strain Eubacterium limosum as obtained above, to convert methylated prenylflavonoids in a fermentation setting. Fermentation was performed in a Braun Biostat® M fermentor (2 l vessel), filled with 1.5 L Brain Heart Infusion broth (with 0.5 g/l cystein-HCl). Subsequently, the fermentor was sterilized by autoclaving it for 30 min at 121° C. Before inoculation, the fermentor was made anaerobic by flushing the system for 1 h with nitrogen gas. After this, the fermentor was inoculated with a 2-days old E. limosum culture and 25 mg/L IX was added to the fermentation liquid. The fermentation was performed at 37° C. for 2 weeks, without pH control. From day 1 on, three times/day 200 ml anaerobic Brain Heart Infusion broth (with 0.5 g/l cystein-HCl), containing 25 mg/L IX was dosed to the reactor at 10 ml/min and simultaneously […] fermentor content was removed from the system. A 10 ml sample was taken from the effluent, for chemical analysis. This was done at day 0, 1, 2 and afterwards every 2 days. Data were as % conversion (8-PN/(IX+8-PN)). A conversion of 0% (day 0), 43% (day 1) and 100% (day 2 and following days), of IX into 8-PN was obtained.
compound,measurement,setting,value
"COc1cc(O)c(CC=C(C)C)c2c1C(=O)C[C@@H](c1ccc(O)cc1)O2 [IX, 5-O-methyl-8-prenylnaringenin]",% conversion (8-PN/(IX+8-PN)),day 0,0%
same,% conversion (8-PN/(IX+8-PN)),day 1,43%
same,% conversion (8-PN/(IX+8-PN)),day 2 and following days,100%
